Experiments:
Format in all cases: functional
[1] = tested on: Photobacterium leiognathi; assay: Growth inhibition of Photobacterium leiognathi Sh1 assessed as bio-luminescence at 0.1 mg/ml after 16 to 18 hr by chronic action test relative to control; design: scale not given: the % may be the effect or the level left
[2] = tested on: Photobacterium leiognathi; assay: Growth inhibition of Photobacterium leiognathi Sh1 assessed as bio-luminescence at 0.025 mg/ml after 16 to 18 hr by chronic action test relative to control; design: scale not given: the % may be the effect or the level left
[3] = tested on: Photobacterium leiognathi; assay: Growth inhibition of Photobacterium leiognathi Sh1 assessed as bio-luminescence at 0.25 mg/ml after 10 min by acute action test relative to control; design: scale not given: the % may be the effect or the level left
[4] = tested on: Photobacterium leiognathi; assay: Growth inhibition of Photobacterium leiognathi Sh1 assessed as bio-luminescence at 0.1 mg/ml after 10 min by acute action test relative to control; design: scale not given: the % may be the effect or the level left
[5] = tested on: Photobacterium leiognathi; assay: Growth inhibition of Photobacterium leiognathi Sh1 assessed as bio-luminescence at 0.025 mg/ml after 10 min by acute action test relative to control; design: scale not given: the % may be the effect or the level left
SNB-19 = assay: Cytotoxicity against Homo sapiens (human) SNB19 cells assessed as cell growth at 10 uM after 48 hr by SRB assay relative to control; conditions: SNB-19, 48 h, read-out: Activity
U-251 [6] = assay: Cytotoxicity against Homo sapiens (human) U251 cells assessed as cell growth at 10 uM after 48 hr by SRB assay relative to control; conditions: U-251, 48 h, read-out: Activity
SNB-75 [7] = assay: Cytotoxicity against Homo sapiens (human) SNB75 cells assessed as cell growth at 10 uM after 48 hr by SRB assay relative to control; conditions: SNB-75, 48 h, read-out: Activity
[8] = tested on: Photobacterium leiognathi; assay: Growth inhibition of Photobacterium leiognathi Sh1 assessed as bio-luminescence at 0.25 mg/ml after 16 to 18 hr by chronic action test relative to control; design: scale not given: the % may be the effect or the level left
PC-3 = assay: Cytotoxicity against Homo sapiens (human) PC3 cells assessed as cell growth at 10 uM after 48 hr by SRB assay relative to control; conditions: PC-3, 48 h, read-out: Activity
MCF7 = assay: Cytotoxicity against Homo sapiens (human) MCF7 cells assessed as cell growth at 10 uM after 48 hr by SRB assay relative to control; conditions: MCF7, 48 h, read-out: Activity
RXF 393 = assay: Cytotoxicity against Homo sapiens (human) RXF393 cells assessed as cell growth at 10 uM after 48 hr by SRB assay relative to control; conditions: RXF 393, 48 h, read-out: Activity
786-0 = assay: Cytotoxicity against Homo sapiens (human) 786-0 cells assessed as cell growth at 10 uM after 48 hr by SRB assay relative to control; conditions: 786-0, 48 h, read-out: Activity
OVCAR-8 = assay: Cytotoxicity against Homo sapiens (human) OVCAR8 cells assessed as cell growth at 10 uM after 48 hr by SRB assay relative to control; conditions: OVCAR-8, 48 h, read-out: Activity
OVCAR-4 = assay: Cytotoxicity against Homo sapiens (human) OVCAR4 cells assessed as cell growth at 10 uM after 48 hr by SRB assay relative to control; conditions: OVCAR-4, 48 h, read-out: Activity
UACC-257 = assay: Cytotoxicity against Homo sapiens (human) UACC257 cells assessed as cell growth at 10 uM after 48 hr by SRB assay relative to control; conditions: UACC-257, 48 h, read-out: Activity
SK-MEL-5 = assay: Cytotoxicity against Homo sapiens (human) SK-MEL-5 cells assessed as cell growth at 10 uM after 48 hr by SRB assay relative to control; conditions: SK-MEL-5, 48 h, read-out: Activity
MDA-MB-435 = assay: Cytotoxicity against Homo sapiens (human) MDA-MB-435 cells assessed as cell growth at 10 uM after 48 hr by SRB assay relative to control; conditions: MDA-MB-435, 48 h, read-out: Activity
Malme-3M = assay: Cytotoxicity against Homo sapiens (human) MALME-3M cells assessed as cell growth at 10 uM after 48 hr by SRB assay relative to control; conditions: read-out: Activity
LOX IMVI = assay: Cytotoxicity against Homo sapiens (human) LOXIMVI cells assessed as cell growth at 10 uM after 48 hr by SRB assay relative to control; conditions: read-out: Activity
NCI-H460 = assay: Cytotoxicity against Homo sapiens (human) NCI-H460 cells assessed as cell growth at 10 uM after 48 hr by SRB assay relative to control; conditions: NCI-H460, 48 h, read-out: Activity
BT-549 = assay: Cytotoxicity against Homo sapiens (human) BT549 cells assessed as cell growth at 10 uM after 48 hr by SRB assay relative to control; conditions: BT-549, 48 h, read-out: Activity
Hs-578T = assay: Cytotoxicity against Homo sapiens (human) Hs 578T cells assessed as cell growth at 10 uM after 48 hr by SRB assay relative to control; conditions: read-out: Activity
MDA-MB-231 [9] = assay: Cytotoxicity against Homo sapiens (human) MDA-MB-231 cells assessed as cell growth at 10 uM after 48 hr by SRB assay relative to control; conditions: MDA-MB-231, 48 h, read-out: Activity
UO-31 = assay: Cytotoxicity against Homo sapiens (human) UO31 cells assessed as cell growth at 10 uM after 48 hr by SRB assay relative to control; conditions: UO-31, 48 h, read-out: Activity
SN12C = assay: Cytotoxicity against Homo sapiens (human) SN12C cells assessed as cell growth at 10 uM after 48 hr by SRB assay relative to control; conditions: read-out: Activity
ACHN = assay: Cytotoxicity against Homo sapiens (human) ACHN cells assessed as cell growth at 10 uM after 48 hr by SRB assay relative to control; conditions: read-out: Activity
A498 [10] = assay: Cytotoxicity against Homo sapiens (human) A498 cells assessed as cell growth at 10 uM after 48 hr by SRB assay relative to control; conditions: A498, 48 h, read-out: Activity
[11] = Cytotoxicity against Homo sapiens (human) NCI-ADR-RES cells assessed as cell growth at 10 uM after 48 hr by SRB assay relative to control; conditions: read-out: Activity
HT-29 = assay: Cytotoxicity against Homo sapiens (human) HT-29 cells assessed as cell growth at 10 uM after 48 hr by SRB assay relative to control; conditions: HT-29, 48 h, read-out: Activity
HCT-116 = assay: Cytotoxicity against Homo sapiens (human) HCT116 cells assessed as cell growth at 10 uM after 48 hr by SRB assay relative to control; conditions: HCT-116, 48 h, read-out: Activity
SF-539 = assay: Cytotoxicity against Homo sapiens (human) SF539 cells assessed as cell growth at 10 uM after 48 hr by SRB assay relative to control; conditions: SF-539, 48 h, read-out: Activity
HOP-92 = assay: Cytotoxicity against Homo sapiens (human) HOP92 cells assessed as cell growth at 10 uM after 48 hr by SRB assay relative to control; conditions: HOP-92, 48 h, read-out: Activity
SR = assay: Cytotoxicity against Homo sapiens (human) SR cells assessed as cell growth at 10 uM after 48 hr by SRB assay relative to control; conditions: read-out: Activity
DU-145 = assay: Cytotoxicity against Homo sapiens (human) DU145 cells assessed as cell growth at 10 uM after 48 hr by SRB assay relative to control; conditions: DU-145, 48 h, read-out: Activity
UACC-62 = assay: Cytotoxicity against Homo sapiens (human) UACC62 cells assessed as cell growth at 10 uM after 48 hr by SRB assay relative to control; conditions: UACC-62, 48 h, read-out: Activity
A549 = assay: Cytotoxicity against Homo sapiens (human) A549 cells assessed as cell growth at 10 uM after 48 hr by SRB assay relative to control; conditions: A549, 48 h, read-out: Activity
OVCAR-3 = assay: Cytotoxicity against Homo sapiens (human) OVCAR3 cells assessed as cell growth at 10 uM after 48 hr by SRB assay relative to control; conditions: OVCAR-3, 48 h, read-out: Activity
U-251 [12] = assay: Cytotoxicity against Homo sapiens (human) U251 cells after 48 hr by SRB assay; conditions: U-251, 48 h
SNB-75 [13] = assay: Cytotoxicity against Homo sapiens (human) SNB75 cells after 48 hr by SRB assay; conditions: SNB-75, 48 h
HOP-62 = assay: Cytotoxicity against Homo sapiens (human) HOP62 cells after 48 hr by SRB assay; conditions: HOP-62, 48 h
TK-10 = assay: Cytotoxicity against Homo sapiens (human) TK10 cells assessed as cell growth at 10 uM after 48 hr by SRB assay relative to control; conditions: TK-10, 48 h, read-out: Activity
SK-MEL-2 = assay: Cytotoxicity against Homo sapiens (human) SK-MEL-2 cells assessed as cell growth at 10 uM after 48 hr by SRB assay relative to control; conditions: SK-MEL-2, 48 h, read-out: Activity
MDA-MB-231 [14] = assay: Cytotoxicity against Homo sapiens (human) MDA-MB-231 cells after 48 hr by SRB assay; conditions: MDA-MB-231, 48 h
A498 [15] = assay: Cytotoxicity against Homo sapiens (human) A498 cells after 48 hr by SRB assay; conditions: A498, 48 h
SW-620 = assay: Cytotoxicity against Homo sapiens (human) SW620 cells assessed as cell growth at 10 uM after 48 hr by SRB assay relative to control; conditions: SW-620, 48 h, read-out: Activity
NCI-H522 = assay: Cytotoxicity against Homo sapiens (human) NCI-H522 cells assessed as cell growth at 10 uM after 48 hr by SRB assay relative to control; conditions: NCI-H522, 48 h, read-out: Activity

COc1ccc(-c2nn3c(SCC(=O)Nc4ccc(C)cc4)nc4ccccc4c3nc2=O)cc1
Activity [1]: 76.8%
Activity [2]: 69.8%
Activity [3]: 146.7%
Activity [4]: 120%
Activity [5]: 112.5%
growth at 10 µM (SNB-19): 59%
growth at 10 µM (U-251 [6]): 24.4%
growth at 10 µM (SNB-75 [7]): 55.9%
Activity [8]: 27.3%

Cc1ccc(CNC(=O)CSc2nc3ccccc3c3nc(=O)c(-c4ccccc4)nn23)cc1
growth at 10 µM (PC-3): 83%
growth at 10 µM (MCF7): 79.1%
growth at 10 µM (RXF 393): 77.2%
growth at 10 µM (786-0): 80.2%
growth at 10 µM (OVCAR-8): 60.9%
growth at 10 µM (OVCAR-4): 74.9%
growth at 10 µM (UACC-257): 71.1%
growth at 10 µM (SK-MEL-5): 81.8%
growth at 10 µM (MDA-MB-435): 67.7%
growth at 10 µM (Malme-3M): 77.2%
growth at 10 µM (LOX IMVI): 78.6%
growth at 10 µM (NCI-H460): 72.1%
Activity [1]: 112%
Activity [2]: 80%
Activity [3]: 145.5%
Activity [4]: 106%
Activity [5]: 84.6%
growth at 10 µM (BT-549): 26.9%
growth at 10 µM (Hs-578T): 62.3%
growth at 10 µM (MDA-MB-231 [9]): 70.5%
growth at 10 µM (UO-31): 61.9%
growth at 10 µM (SN12C): 78.6%
growth at 10 µM (ACHN): 85.8%
growth at 10 µM (A498 [10]): 75.5%
growth at 10 µM [11]: 61.4%
growth at 10 µM (HT-29): 78.8%
growth at 10 µM (HCT-116): 32.5%
growth at 10 µM (SF-539): 48%
growth at 10 µM (HOP-92): 85.6%
growth at 10 µM (SR): 71.4%
growth at 10 µM (U-251 [6]): 63%
growth at 10 µM (SNB-75 [7]): 62.5%
Activity [8]: 140%

O=C(CSc1nc2ccccc2c2nc(=O)c(-c3ccccc3)nn12)NCc1ccccc1F
growth at 10 µM (MCF7): 38.2%
growth at 10 µM (DU-145): 35.9%
growth at 10 µM (RXF 393): 42.3%
growth at 10 µM (786-0): 16.5%
growth at 10 µM (OVCAR-8): 36.2%
growth at 10 µM (OVCAR-4): -39.5%
growth at 10 µM (UACC-62): 41.2%
growth at 10 µM (SK-MEL-5): 47.3%
growth at 10 µM (MDA-MB-435): 49.6%
growth at 10 µM (LOX IMVI): 50.5%
growth at 10 µM (NCI-H460): 5.5%
growth at 10 µM (A549): 26%
Activity [1]: 75%
Activity [2]: 90.6%
Activity [3]: 100%
Activity [4]: 125%
Activity [5]: 118.8%
growth at 10 µM (OVCAR-3): 9.5%
GI50 (U-251 [12]): 2.69 µM
LC50 (U-251 [12]): > 100 µM
TGI (U-251 [12]; read-out: pTGI (converted)): > 100 µM
GI50 (SNB-75 [13]): 1.82 µM
LC50 (SNB-75 [13]): > 100 µM
TGI (SNB-75 [13]; read-out: pTGI (converted)): > 100 µM
GI50 (HOP-62): 2.82 µM
LC50 (HOP-62): > 100 µM
TGI (HOP-62; read-out: pTGI (converted)): > 100 µM
growth at 10 µM (TK-10): 46.3%
growth at 10 µM (SK-MEL-2): 50.3%
growth at 10 µM (MDA-MB-231 [9]): 48.9%
growth at 10 µM [11]: 38.8%
GI50 (MDA-MB-231 [14]): 2.69 µM
CC50 (MDA-MB-231 [14]; read-out: pLC50 (the source's name) (converted)): > 100 µM
TGI (MDA-MB-231 [14]; read-out: pTGI): > 100 µM
GI50 (A498 [15]): 1.29 µM
LC50 (A498 [15]): > 100 µM
TGI (A498 [15]; read-out: pTGI (converted)): > 100 µM
growth at 10 µM (SW-620): 31%
growth at 10 µM (HCT-116): 34.5%
growth at 10 µM (SF-539): 20.9%
growth at 10 µM (NCI-H522): 34.5%
growth at 10 µM (U-251 [6]): 2.29%
growth at 10 µM (SNB-75 [7]): 15.8%
Activity [8]: 54.5%

From ChEMBL document CHEMBL3045943, “Novel N-aryl(alkaryl)-2-[(3-R-2-oxo-2H-[1,2,4]triazino[2,3-c]quinazoline-6-yl)thio]acetamides: synthesis, cytotoxicity, anticancer activity, COMPARE analysis and docking” (2013)
